# From patent EP3974434B1, “MACROLIDE DERIVATIVES, PREPARATION METHOD AND APPLICATION THEREOF” (Zhejiang Hisun Pharmaceutical Co., Ltd., priority 2019, dated 2020)
# Columns and labels:
# ALK = molecular target: T1, ALK (Homo sapiens, UniProt Q9UM73); assay: HTRF KinEASE-TK kinase activity inhibition assay, ALK; assay type: biochemical; conditions: ATP 1 µM
# T1 construct: purchased SignalChem A19-11G-10
# Text: The following method was used to determine the inhibition degrees of the compounds of the present invention on the activity of recombinant human ALK kinase in vitro. In this method, HTRF®KinEASE-TK tyrosine kinase kit (article No. 62TK0PEB) of Cisbio company was used, the principle of the kit was based on time-resolved fluorescence resonance energy transfer (TF-FRET), and the inhibition of the compounds on the activity of the ALK kinase was reflected by determining a phosphorylation degree of a biotinylated polypeptide substrate mediated by ALK kinase. […] The recombinant human ALK was purchased from SignalChem (article number was ALK#A19-11G-10).
# The experimental flow was briefly described as follows: a test compound was first dissolved in DMSO to prepare a storage solution, and then diluted in gradient with a buffer provided in the kit. A final concentration of the test compound in the reaction system ranged from 1000 nM to 0.004 nM. An ATP Km value concentration of each ALK protein was determined by using an ATP solution diluted in gradient (Sangon Biotech (Shanghai) Co., Ltd., A600311). […] After incubation, fluorescence intensity values of each well at an excitation wavelength of 304 nm, and emission wavelengths of 620 nm and 665 nM were determined in a TF-FRET mode on a microplate reader, and the fluorescence intensity ratio 665/620 of each well was calculated. […]
# [1] = system: KARPAS-299 (human anaplastic large cell lymphoma cell); assay: Cell proliferation assay (CellTiter-Glo), KARPAS-299; assay type: cell-based; conditions: 72 hours, NPM-ALK fusion
# Text: The following method was used to determine the effects of the compounds of the present invention on cell proliferation. H2228 cells (containing EML4-ALK fusion) were purchased from Cell Resource Center of Shanghai Institutes for Biological Sciences, Chinese Academy of Sciences. KARPAS-299 cells (containing NPM-ALK fusion) were purchased from Nanjing COBIOER Biotechnology Co., Ltd. The above two cell lines were used to determine the inhibition of the compounds on cell activities. The cells were cultured in an RPMI 1640 medium containing 10% fetal bovine serum, 100 U penicillin, 100 µg/mL streptomycin, and 1 mM Sodium Pyruvate. The cells were cultured in a 5% CO2 incubator at 37°C. The activity of the cells was determined by CellTiter-Glo® Luminescent Cell Viability Assay kit (Promega, article number: G7573).
# (§1) The experimental methods were operated according to the steps in the kit instruction, and were briefly described as follows: a test compound was first dissolved in DMSO to prepare a storage solution, and then diluted in gradient with the corresponding cell culture medium to prepare a test sample. […] After the culture, 50 µL of CellTiter-Glo detection solution was added to each well, shaken for 5 minutes, and then stood for 10 minutes, and the luminescence values of each well were read on the microplate reader using a Luminance mode. […]
# BAF3 LMNA-TRKA^G667C = assay: Cell proliferation assay (CellTiter-Glo), BAF3 LMNA-TRKA G667C; assay type: cell-based; conditions: Mus musculus, 72 hours
# Experimental: The following method was used to determine the effects of the compounds of the present invention on cell proliferation. BAF3 cells were purchased from National Infrastructure of Cell Line Resource (Beijing Headquarter). For TRKA, BAF3 cells were used to construct […] stable cell lines of BAF3 LMNA-TRKA^WT and BAF3 LMNA-TRKA^G667C.The above […] cell lines were used to determine the inhibition of the compounds on cell activities. The cells were cultured in an RPMI 1640 medium containing 10% fetal bovine serum, 100 U penicillin and 100 µg/mL streptomycin. The cells were cultured in a 5% CO2 incubator at 37°C. The activities of the cells were determined by CellTiter-Glo® Luminescent Cell Viability Assay kit (Promega, article number: G7573).
# as §1, with “sample. A final concentration of the compound ranged from 1 µM to 0.15 nM.” for “sample.”
# T1 sequence (Q9UM73 19-1620): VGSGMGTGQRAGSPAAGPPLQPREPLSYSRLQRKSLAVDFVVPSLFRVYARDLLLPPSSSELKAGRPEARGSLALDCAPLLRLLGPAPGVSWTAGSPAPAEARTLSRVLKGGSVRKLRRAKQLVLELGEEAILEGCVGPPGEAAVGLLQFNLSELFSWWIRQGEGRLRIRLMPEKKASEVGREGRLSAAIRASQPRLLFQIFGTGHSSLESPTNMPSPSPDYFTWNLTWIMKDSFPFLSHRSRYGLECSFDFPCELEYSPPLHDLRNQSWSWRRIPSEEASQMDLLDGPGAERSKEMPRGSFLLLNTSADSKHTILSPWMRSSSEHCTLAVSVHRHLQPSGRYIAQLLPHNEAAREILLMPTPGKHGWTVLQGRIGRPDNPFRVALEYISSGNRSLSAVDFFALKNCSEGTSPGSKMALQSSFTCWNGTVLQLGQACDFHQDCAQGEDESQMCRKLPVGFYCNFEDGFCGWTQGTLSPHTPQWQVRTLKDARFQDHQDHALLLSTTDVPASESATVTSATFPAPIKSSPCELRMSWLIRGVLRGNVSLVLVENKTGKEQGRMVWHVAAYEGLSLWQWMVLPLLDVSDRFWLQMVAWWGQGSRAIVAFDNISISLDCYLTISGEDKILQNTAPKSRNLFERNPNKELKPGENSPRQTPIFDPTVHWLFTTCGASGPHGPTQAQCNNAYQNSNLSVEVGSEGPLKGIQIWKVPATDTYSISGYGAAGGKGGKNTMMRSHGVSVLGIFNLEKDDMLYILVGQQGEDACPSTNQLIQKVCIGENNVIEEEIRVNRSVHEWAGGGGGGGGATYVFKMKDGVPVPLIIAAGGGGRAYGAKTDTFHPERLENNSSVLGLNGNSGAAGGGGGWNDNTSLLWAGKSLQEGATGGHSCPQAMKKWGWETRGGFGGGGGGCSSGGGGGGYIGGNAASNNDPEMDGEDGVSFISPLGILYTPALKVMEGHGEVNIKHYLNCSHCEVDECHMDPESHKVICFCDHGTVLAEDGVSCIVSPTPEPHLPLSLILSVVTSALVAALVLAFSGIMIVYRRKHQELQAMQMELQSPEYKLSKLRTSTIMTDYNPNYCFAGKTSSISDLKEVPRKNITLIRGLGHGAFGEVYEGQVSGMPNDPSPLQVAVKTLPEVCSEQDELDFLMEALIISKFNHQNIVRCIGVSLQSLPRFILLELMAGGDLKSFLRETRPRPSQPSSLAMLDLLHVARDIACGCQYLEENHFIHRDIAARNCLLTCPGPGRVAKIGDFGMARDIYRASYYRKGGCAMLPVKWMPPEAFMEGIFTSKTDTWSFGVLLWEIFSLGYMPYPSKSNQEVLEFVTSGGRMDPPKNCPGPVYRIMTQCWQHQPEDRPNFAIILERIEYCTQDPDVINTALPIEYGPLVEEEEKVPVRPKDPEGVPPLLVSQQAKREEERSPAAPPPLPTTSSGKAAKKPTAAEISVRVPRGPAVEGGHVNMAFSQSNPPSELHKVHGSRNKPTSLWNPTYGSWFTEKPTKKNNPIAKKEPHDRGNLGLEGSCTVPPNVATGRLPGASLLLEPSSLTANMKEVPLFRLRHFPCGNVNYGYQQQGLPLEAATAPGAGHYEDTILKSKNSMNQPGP
SMILES,IC50 (ALK),IC50 [1],IC50 (BAF3 LMNA-TRKA^G667C)
"C[C@H]1Nc2ccn3ncc(c3n2)C(=O)NC[C@@]2(C)Cc3cc(F)cc1c3O2 [Example 8, (3R,11R)-6-fluoro-3,11-dimethyl-10-oxa-2,13,17,1 8,21-pentaazapentacyclo[13.5.2.1^8,11.0^4,9.0^18,22]tric osa-1(21),4,6,8,15(22),16,19-heptaen-14-one]",2.02 nM,65.5 nM,77.6 nM
"C[C@H]1Nc2ccn3nc(N)c(c3n2)C(=O)NC[C@@]2(C)Cc3cc(F)cc1c3O2 [Example 25, (3R,11R)-16-amino-6-fluoro-3,11-dimethyl-10-oxa-2,13,17,18,21-pentaazapentacyclo[13.5.2.1^8,11.0^4,9. 0^18,22]tricosa-1(21),4,6,8,15(22),16,19-heptaen-14-one]",1.93 nM,52.7 nM,46.7 nM
